Assay results: article PMC3726599, “A Metabolically-Stabilized Phosphonate Analog of Lysophosphatidic Acid Attenuates Collagen-Induced Arthritis” (PLoS ONE, 2013)
Read-outs that look alike come from different tables or passages of the source.

Columns and labels:
[1] = test system: ATX; settings: at 10 μM, substrate FS-3; cited from earlier work
[2] = test system: LPA4; settings: Ca++ mobilization, CHO cells; kind of constant not given; read-out: inhibition of LPA4; cited from earlier work
[3] = test system: LPA production in whole blood; test: LPA and LPC levels in whole blood ex vivo (HPLC-MS/MS); set-up: species or system mouse
Protocol: (§1) BrP-LPA, LPA species (C14:0, C16:0, C18:0, C18:1 and C20:4) and LPC species (C14:0, C16:0, C18:0, C18:1 and C20:0) were measured in plasma with HPLC-ESI/MS/MS using RSLCnano system (Ultimate 3000) coupled in-line with an LTQ Orbitrap XL mass spectrometer (Thermo Scientific, Waltham, MA, USA). BrP-LPA and lipid (LPA, LPC) extraction from plasma was performed on ice according to the Folch method with minor modifications. Plasma samples (50 ul) were mixed with 950 ul PBS prior to extraction and spiked with the internal standard mix (17:1 LPA/LPC). Samples were extracted under neutral conditions with 4 ml of ice-cold CHCl3/CH3OH (2/1, v/v) followed by 2 ml of PBS-saturated ice-cold CHCl3/CH3OH (2/1, v/v). Each extraction step was followed by a 60 s vortex and a 1 min centrifugation step in a bench-top clinical centrifuge in a cold room at 4°C at 3,000 rpm. The lower chloroform organic phases from both neutral extraction steps were pooled and kept for LPC measurement. The remained aqueous phase was chilled on ice for 10 min and extracted twice with ice-cold acidified with acetic acid CHCl3/CH3OH (2/1, v/v) as above. The lower organic phases were pooled, neutralized to pH 6–7 (checked with pH paper as above) on ice and kept for LPA, BrP-LPA measurements. The kept neutral lower organic phase of neutral extraction and the neutralized acidified lower organic phase were evaporated to dryness. The resulting residues were resuspended in 0.15 ml of isopropanol and after brief vortex mixing the solution was transferred to the auto sampler vial. Recovery of LPA species was between 60% and 95%. Recovery of BrP-LPA was 70% and the recovery of LPC species was between 80% and 100%. The Relative Standard Deviation (RSD) was less than 7% from the plasma fortified with three different concentrations (0.1, 0.5 and 1 μΜ) of LPAs, (0.1, 1 and 10 μΜ) of BrP-LPA and (0.5, 5 and 50 μΜ) of LPCs. Analysis was performed using a Phenomenex (Phenomenex, Torrance, CA, USA) Luna Silica column (2–250 mm, 5 μm particle size) using a binary gradient program consisting of isopropanol:hexane:100 mM NH4CO2H(aq) 58:40:2 (mobile phase A) and isopropanol:hexane:100 mM NH4CO2H(aq) 50:40:10 (mobile phase B). The mobile phase was delivered at a flow rate of 0.3 ml/min and the total run time was 50 min/sample. The analysis was performed with electrospray ionization in negative SIM (Single Ion Monitoring) mode for LPA species and BrP-LPA and in positive mode for LPC species (data dependent MS/MS). The resolution was 100 K providing high accuracy for lysophospholipid measurements. Data were collected and processed with the Xcalibur software (Thermo Scientific). The precursor ion mass was used for the quantification while lipid identity was confirmed by precursor ion fragmentation using collision induced dissociation (CID). The peak area ratios (lipid/internal standard) versus the molar ratios (lipid/internal standard) were plotted and fitted to a linear regression. The linear dynamic range of LPA species and BrP-LPA was between 0.01 μM and 10 μΜ.
The inhibition model (competitive, noncompetitive, or mixed type inhibition) was evaluated by graphical analysis with Lineweaver–Burk double reciprocal plots (1/[velocity] versus 1/[substrate]) and Cornish-Bowden plot ([substrate]/[velocity] versus [Inhibitor]). These plots were generated by the measurement of ATX activity in the presence of different BrP-LPA concentrations (0–10 μΜ) and increased amounts of 16:0 LPC (100, 200, 400 μΜ). The inhibition constants (Ki) and IC50 values were determined using the mean values obtained from two independent experiments. The relative remaining ATX activity or LPA levels in the presence of the BrP-LPA was expressed as a percentage of the corresponding control value (ATX activity, LPA levels without inhibitor). […]

[4] = test system: plasma LPA levels; test: In vivo plasma LPA and LPC levels (HPLC-MS/MS); set-up: species or system mouse; settings: 10 mg/kg i.p.
Protocol: as §1, with “The analysis was performed with electrospray ionization in negative SIM (Single Ion Monitoring) mode for LPA species and BrP-LPA and in positive mode for LPC species (data dependent MS/MS). The resolution was 100 K providing high accuracy for lysophospholipid measurements. Data were collected and processed with the Xcalibur software (Thermo Scientific).” left out, “The peak area ratios (lipid/internal standard) versus the molar ratios (lipid/internal standard) were plotted and fitted to a linear regression. The linear dynamic range of LPA species and BrP-LPA was between 0.01 μM and 10 μΜ.” left out
BrP-LPA was administered intraperitoneally (IP) at 10 mg/kg in water to 6–8 week old female mice. […] Plasma samples were then analysed for plasma ATX activity and BrP-LPA/LPA/LPC levels with the TOOS activity assay and HPLC-MS/MS respectively. […]

IC50 ([3]; read-out: IC50, production of 16:0 LPA): 1340 nM | IC50 ([3]; read-out: IC50, production of 18:0 LPA): 300 nM | IC50 ([3]; read-out: IC50, production of 18:1 LPA): 1520 nM | IC50 ([3]; read-out: IC50, production of 20:4 LPA): 559 nM
Structure (SMILES): CCCCCCCCCCCCCCCC(=O)OC[C@@H](O)CC(Br)P(=O)(O)O (stereo partly drawn) [BrP-LPA, 1-bromo-3(S)-hydroxy-4-(palmitoyloxy)butyl-phosphonate]
inhibition of lysophospholipase D activity of ATX [1]: 94% | IC50 [2]: 270 nM | reduction of 18:0 LPA levels ([3]; BrP-LPA 10 μM): 97% | reduction of total LPA levels ([3]; BrP-LPA 10 μM): 86% | endogenous LPC levels ([3]; upon addition of BrP-LPA): no significant changes | plasma LPC levels [4]: remain unchanged | production of LPA species in plasma [4]: inhibited the production of all LPA species tested except from 14:0 LPA | reduction of total plasma LPA levels ([4]; 1 hour post administration): 82% | LPA levels, % of normal initial levels ([4]; sixteen hours post administration): 60–70%
